In EP1322622B1, “NEW N, N'-DISUBSTITUTED BENZIMIDAZOLONE DERIVATIVES WITH AFFINITY AT THE SEROTONIN AND DOPAMINE RECEPTORS” (Sprout Pharmaceuticals, Inc., priority 2000, dated 2002):

The molecules below were run against T1, CHO/5-HT1A cells (Homo sapiens, UniProt P08908) (assay: 5-HT1A Functional assay (cAMP)). Settings: 10 µM compound; % inhibition of the cAMP accumulation induced by 10 µM FSK; read-out: 5-HT1A cAMP % inhib.
T1 construct: expressed in transfected cells; host or cells: CHO/5-HT1A cells
T1 sequence (P08908 1-422): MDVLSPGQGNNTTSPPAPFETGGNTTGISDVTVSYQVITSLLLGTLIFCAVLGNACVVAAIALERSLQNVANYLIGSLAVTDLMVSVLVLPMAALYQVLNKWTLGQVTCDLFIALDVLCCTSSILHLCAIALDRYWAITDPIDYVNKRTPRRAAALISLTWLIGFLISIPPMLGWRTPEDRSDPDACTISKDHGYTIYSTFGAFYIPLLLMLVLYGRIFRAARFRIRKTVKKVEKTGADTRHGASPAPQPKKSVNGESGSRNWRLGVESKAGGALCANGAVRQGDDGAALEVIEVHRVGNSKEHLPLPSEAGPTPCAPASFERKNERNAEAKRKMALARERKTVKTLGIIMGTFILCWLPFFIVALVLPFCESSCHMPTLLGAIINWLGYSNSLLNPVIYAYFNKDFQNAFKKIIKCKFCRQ
Assay type: cell-based
Method: CHO/5-HT1A cells were random seeded at a density of about 200,000/well in 24 well plates the day prior to the experiment. On the day of the experiment, cells were pretreated for 15 min at 37 °C with 500 µM isobuthylmethylxantine (IBMX) dissolved in culture medium without serum. Wells were then divided in different groups in duplicate as follows: control, 10 µM FSK, 10 µM FSK + 1 µM 5-HT as positive standard and 10 µM FSK + 10 µM of the different compound under evaluation. Sample solutions were added and incubated for additional 15 min at 37 °C. After incubation, medium was aspirated and the reaction stopped by adding 200 µl of lysis buffer. Plates were shaken for 5 min, then the lysate was removed and samples were stored at 4 °C until the day of the assay. For the cAMP evaluation, samples were properly diluted and the cAMP content was measured by an enzymeimmunoassay system.

Row | Structure (SMILES) | inhibition at 10 µM
1 | COCCn1c(=O)n(CCCCN2CCN(c3cccc(C(F)(F)F)c3)CC2)c2ccccc21 [compound 9] | 48%
2 | Cc1cccc(N2CCN(CCCCn3c(=O)n(CCO)c4ccccc43)CC2)c1C [compound 73] | 45%
3 | CCNC(=O)OCCn1c(=O)n(CCCCN2CCN(c3cccc(C(F)(F)F)c3)CC2)c2ccccc21 [compound 83] | 64%
4 | COCCn1c(=O)n(CCN2CCN(c3cccc(C(F)(F)F)c3)CC2)c2ccccc21 [compound 168] | 71%
5 | COCCn1c(=O)n(CCN2CCN(c3cccc(C)c3C)CC2)c2ccccc21 [compound 177] | 76%
6 | O=c1n(CCO)c2ccccc2n1CCN1CCN(c2cccc(Cl)c2)CC1 [compound 183] | 66%
7 | CCNC(=O)OCCn1c(=O)n(CCN2CCN(c3cccc(C(F)(F)F)c3)CC2)c2ccccc21 [compound 206] | 80%
8 | Cc1cccc(N2CCN(CCn3c(=O)n(CCNS(C)(=O)=O)c4ccccc43)CC2)c1C [compound 254] | 66%
9 | CCNC(=O)OCCn1c(=O)n(C/C=C/CN2CCN(c3cccc(Cl)c3)CC2)c2ccccc21 [compound 416] | 77%
10 | CC(=O)NCCn1c(=O)n(CCN2CCN(c3cccc(C)c3C)CC2)c2ccccc21 [compound 446] | 81%
11 | CS(=O)(=O)NCCn1c(=O)n(C/C=C\CN2CC=C(c3ccccc3)CC2)c2ccccc21 [compound 504] | 50%

These molecules were tested against T2, 5-HT2A (Rattus norvegicus, UniProt P14842) (assay: 5HT2A Radioligand Receptor Binding Assay ([3H]-Ketanserin, cerebral frontal cortex membranes)). Settings: 0.5 nM [3H]-Ketanserin.
T2 construct: Cerebral frontal cortex was homogenized in 10 volumes of ice cold 0.32 M sucrose; from tissue; host or cells: rat cerebral frontal cortex membranes
Design: species or system Rats
Method: Rats (male Sprague-Dawley, 200-250 g) were used. Cerebral frontal cortex was homogenized in 10 volumes of ice cold 0.32 M sucrose in 5 mM Tris-HCl ([…]) buffer. After centrifugation of the homogenate (1,000 x g for 10 min) the supernatant was then recentrifuged at 48,000x g for 15 min.The resulting pellet was gently homogenized in an equal volume of 50mM Tris-HCl buffer (pH 7.4) and incubated at 37° C for 10 minutes. Membranes were then collected by centrifugation as above described and finally resuspended in 10 volumes of 50mM Tris-HCl buffer (pH 7.4).
For displacement experiments membranes (980 µl) were diluted in 50 mM Tris-HCl buffer (pH 7.4) to a final concentration of 1:100 (w/v); the tissue suspension was then incubated at 37 °C for 10 min in a final volume of 1 ml in the presence of 0.5 nM [^3H]-Ketanserin. Non specific binding was determined by incubating similar samples with unlabelled methysergide (100 µM). […] The filters were washed three times with 2 ml ice-cold Tris-HCl buffer and placed in polyethylene vials, then 4 ml of Filter Count scintillation cocktail (Packard) were added. The radioactivity present was counted by liquid scintillation spectrometry.
(§1) The affinity values (IC50) for the compounds were obtained by a non linear least squares regression analysis on the basis of a one binding site model.

T2 sequence (P14842 whole entry): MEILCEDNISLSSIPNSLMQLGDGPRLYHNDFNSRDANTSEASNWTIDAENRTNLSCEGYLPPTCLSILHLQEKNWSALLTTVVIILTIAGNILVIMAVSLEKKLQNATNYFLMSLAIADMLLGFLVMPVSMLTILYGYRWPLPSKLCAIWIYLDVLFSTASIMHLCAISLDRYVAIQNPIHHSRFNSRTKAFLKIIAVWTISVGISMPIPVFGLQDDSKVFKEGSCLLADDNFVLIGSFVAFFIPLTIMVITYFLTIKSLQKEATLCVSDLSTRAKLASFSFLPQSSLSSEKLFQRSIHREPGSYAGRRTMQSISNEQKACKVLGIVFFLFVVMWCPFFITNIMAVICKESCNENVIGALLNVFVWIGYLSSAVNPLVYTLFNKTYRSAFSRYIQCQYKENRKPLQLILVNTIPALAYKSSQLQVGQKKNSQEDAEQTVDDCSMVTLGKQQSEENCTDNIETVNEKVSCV

Row | Structure (SMILES) | IC50
12 | COCCn1c(=O)n(CCCCN2CCN(c3cccc(C(F)(F)F)c3)CC2)c2ccccc21 [compound 9] | 16 nM
13 | Cc1cccc(N2CCN(CCCCn3c(=O)n(CCO)c4ccccc43)CC2)c1C [compound 73] | 0.9 nM
14 | CCNC(=O)OCCn1c(=O)n(CCCCN2CCN(c3cccc(C(F)(F)F)c3)CC2)c2ccccc21 [compound 83] | 43 nM
15 | COCCn1c(=O)n(CCN2CCN(c3cccc(C(F)(F)F)c3)CC2)c2ccccc21 [compound 168] | 46 nM
16 | COCCn1c(=O)n(CCN2CCN(c3cccc(C)c3C)CC2)c2ccccc21 [compound 177] | 7.7 nM
17 | O=c1n(CCO)c2ccccc2n1CCN1CCN(c2cccc(Cl)c2)CC1 [compound 183] | 27 nM
18 | CCNC(=O)OCCn1c(=O)n(CCN2CCN(c3cccc(C(F)(F)F)c3)CC2)c2ccccc21 [compound 206] | 17 nM
19 | Cc1cccc(N2CCN(CCn3c(=O)n(CCNS(C)(=O)=O)c4ccccc43)CC2)c1C [compound 254] | 65 nM

The molecules below were run against T3, 5-HT1A human receptors (Homo sapiens, UniProt P08908) (assay: 5-HT1A Radioligand Receptor Binding Assay ([3H]-8-OH-DPAT, CHO cell membranes)). Settings: [3H]-8-OH-DPAT displacement, CHO membranes; read-out: 5-HT1A receptor binding IC50.
T3 construct: expressed in transfected cells; host or cells: CHO cells
T3 sequence (P08908 1-422): T1 sequence (P08908 1-422)
Method: Membranes from CHO cells, expressing 5-HT1A human receptors were suspended in incubation buffer.
The compounds were tested in singlicate at one concentration (10^-7 M) in a total volume of 1000 µl. 980 µl of diluted membranes, 10 µl DMSO or unlabelled ligand and 10 µl of [^3H]-8-OH-DPAT (0.6-0.7 nM) were incubated for 60 min at 27 °C. The reaction was stopped by rapid filtration through Tomtec cell Harvester (48 wells) using Filtermat B (presoaked in 0.1% PEI) filters. […] Non specific binding was determined in the presence of 5-HT (10^-5 M).
(§2) The specific radioligand binding to the receptor was defined by the difference between total binding and non specific binding, determined in the presence of an excess of unlabelled ligand. Results were expressed as percentage of control specific binding obtained in the presence of the compounds.
as §1

Row | Structure (SMILES) | IC50
20 | COCCn1c(=O)n(CCCCN2CCN(c3cccc(C(F)(F)F)c3)CC2)c2ccccc21 [compound 9] | 9.9 nM
21 | Cc1cccc(N2CCN(CCCCn3c(=O)n(CCO)c4ccccc43)CC2)c1C [compound 73] | 13 nM
22 | CCNC(=O)OCCn1c(=O)n(CCCCN2CCN(c3cccc(C(F)(F)F)c3)CC2)c2ccccc21 [compound 83] | 15 nM
23 | COCCn1c(=O)n(CCN2CCN(c3cccc(C(F)(F)F)c3)CC2)c2ccccc21 [compound 168] | 5 nM
24 | COCCn1c(=O)n(CCN2CCN(c3cccc(C)c3C)CC2)c2ccccc21 [compound 177] | 3.3 nM
25 | O=c1n(CCO)c2ccccc2n1CCN1CCN(c2cccc(Cl)c2)CC1 [compound 183] | 7.2 nM
26 | CCNC(=O)OCCn1c(=O)n(CCN2CCN(c3cccc(C(F)(F)F)c3)CC2)c2ccccc21 [compound 206] | 2.1 nM
27 | Cc1cccc(N2CCN(CCn3c(=O)n(CCNS(C)(=O)=O)c4ccccc43)CC2)c1C [compound 254] | 7.4 nM
28 | CC(=O)NCCn1c(=O)n(CCN2CCN(c3cccc(C)c3C)CC2)c2ccccc21 [compound 446] | 7.3 nM

Same assay, conditions: compound at 10^-7 M, singlicate; [3H]-8-OH-DPAT 0.6-0.7 nM; read-out: 5-HT1A receptor binding assay % inhib. (10^-7 M)

Row | Structure (SMILES) | inhibition at 0.1 µM
29 | COCCn1c(=O)n(CCCCN2CCN(c3cccc(C(F)(F)F)c3)CC2)c2ccccc21 [compound 9] | 93%
30 | Cc1cccc(N2CCN(CCCCn3c(=O)n(CCO)c4ccccc43)CC2)c1C [compound 73] | 91%
31 | CCNC(=O)OCCn1c(=O)n(CCCCN2CCN(c3cccc(C(F)(F)F)c3)CC2)c2ccccc21 [compound 83] | 89%
32 | COCCn1c(=O)n(CCN2CCN(c3cccc(C)c3C)CC2)c2ccccc21 [compound 177] | 98%
33 | O=c1n(CCO)c2ccccc2n1CCN1CCN(c2cccc(Cl)c2)CC1 [compound 183] | 96%
34 | Cc1cccc(N2CCN(CCn3c(=O)n(CCNS(C)(=O)=O)c4ccccc43)CC2)c1C [compound 254] | 85%
35 | CCNC(=O)OCCn1c(=O)n(C/C=C/CN2CCN(c3cccc(Cl)c3)CC2)c2ccccc21 [compound 416] | 96%
36 | CC(=O)NCCn1c(=O)n(CCN2CCN(c3cccc(C)c3C)CC2)c2ccccc21 [compound 446] | 92%
37 | CS(=O)(=O)NCCn1c(=O)n(C/C=C\CN2CC=C(c3ccccc3)CC2)c2ccccc21 [compound 504] | 93%

What follows are molecules tested against T4, D4 human receptors (Homo sapiens, UniProt P21917) (assay: D4 Radioligand Receptor Binding Assay ([3H] YM-09151-2, CHO cell membranes)). Settings: compound at 10^-7 M, singlicate; [3H] YM-09151-2 0.15-0.25 nM; read-out: D4 receptor binding assay % inhib. (10^-7 M).
T4 construct: expressed in transfected cells; host or cells: CHO cells
T4 sequence (P21917 1-419): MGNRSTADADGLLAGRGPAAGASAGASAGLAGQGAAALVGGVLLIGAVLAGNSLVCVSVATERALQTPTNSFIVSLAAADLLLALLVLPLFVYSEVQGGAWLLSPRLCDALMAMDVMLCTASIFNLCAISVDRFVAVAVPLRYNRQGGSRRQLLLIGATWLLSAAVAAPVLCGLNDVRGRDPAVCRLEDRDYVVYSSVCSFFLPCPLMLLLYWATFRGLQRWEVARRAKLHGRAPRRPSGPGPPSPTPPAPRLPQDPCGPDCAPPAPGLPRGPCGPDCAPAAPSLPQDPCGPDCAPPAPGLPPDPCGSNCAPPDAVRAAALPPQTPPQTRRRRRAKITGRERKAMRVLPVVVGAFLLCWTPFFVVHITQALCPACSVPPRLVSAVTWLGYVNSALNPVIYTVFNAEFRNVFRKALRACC
Method: Membranes from CHO cells, expressing D4 human receptors were suspended in incubation buffer.
Binding assays were performed in MultiProbe 204 pipetting system (Packard), according to a predetermined mapping, consistent with the software Screen. The compounds were tested in singlicate at one concentration (10^-7 M) in a total volume of 1000 µl (980 µl of diluted membranes, 10 µl DMSO or unlabelled ligand and 10 µl of [^3H] YM-09151-2 (0.15-0.25 nM). After incubation for 120 min at 27 °C, the reaction was stopped by rapid filtration through Tomtec cell Harvester (48 wells) using Filtermat B (presoaked in 0.1% PEI) filters. Filters were washed with ice-cold 50 mM Tris-HCl (pH 7.4) buffer (9 x 700 µl), dryed, covered with MeltiLex B/HS (Wallac) scintillator sheets and heated in oven at 80-90 °C for about 10 min, transferred into plastic sample bags (Wallac), sealed and put into 1024 Beta Plate scintillation counter (Wallac). Non specific binding was determined in the presence of clozapine dissolved in DMSO to a final concentration of 10^-5 M.
as §2

Row | Structure (SMILES) | inhibition at 0.1 µM
38 | COCCn1c(=O)n(CCCCN2CCN(c3cccc(C(F)(F)F)c3)CC2)c2ccccc21 [compound 9] | 32%
39 | Cc1cccc(N2CCN(CCCCn3c(=O)n(CCO)c4ccccc43)CC2)c1C [compound 73] | 58%
40 | CCNC(=O)OCCn1c(=O)n(CCCCN2CCN(c3cccc(C(F)(F)F)c3)CC2)c2ccccc21 [compound 83] | 39%
41 | O=c1n(CCO)c2ccccc2n1CCN1CCN(c2cccc(Cl)c2)CC1 [compound 183] | 62%
42 | Cc1cccc(N2CCN(CCn3c(=O)n(CCNS(C)(=O)=O)c4ccccc43)CC2)c1C [compound 254] | 34%
43 | CCNC(=O)OCCn1c(=O)n(C/C=C/CN2CCN(c3cccc(Cl)c3)CC2)c2ccccc21 [compound 416] | 39%
44 | CC(=O)NCCn1c(=O)n(CCN2CCN(c3cccc(C)c3C)CC2)c2ccccc21 [compound 446] | 31%
45 | CS(=O)(=O)NCCn1c(=O)n(C/C=C\CN2CC=C(c3ccccc3)CC2)c2ccccc21 [compound 504] | 34%
